Measured values from patent US20230143119A1, “PHARMACEUTICAL COMPOSITION FOR PREVENTION OR TREATMENT OF DIABETES AND METABOLIC DISEASES ASSOCIATED THEREWITH” (DONG-A ST CO., LTD., priority 2020, published 2023).

Tests used:
HF mice = assay: Three-week administration in high fat diet (HF) insulin resistant mice; assay type: in vivo, C57BL/6J male mice; conditions: for effect of reducing body fat: compound 1 50 mg/kg or metformin 150 mg/kg twice a day alone, body composition analysis by NMR; for blood concentration of total GLP-1 (GLP-1 secretion) / weight loss: compound 1 50 mg/kg, metformin 150 mg/kg, twice a day, alone or co-administered; for blood concentration of total GLP-1 (GLP-1 secretion): three weeks, nonfasting autopsy; for weight loss: two weeks
Procedure: Four-weeks old C57BL/6J male mice were supplied with a high fat diet (Research Diets Inc., D12492; 60% kcal fat) for ten weeks so as to induce insulin resistance. After acclimatization to drug administration for two weeks, the mice were assigned into each group based on body weight and body fat. Compound 1 was administered alone at 50 mg/kg twice a day to a compound 1 monotherapy group, and metformin was administered alone at 150 mg/kg twice a day to a metformin monotherapy group. The co-administration group was orally co-administered with compound 1 at 50 mg/kg and metformin at 150 mg/kg twice a day for three weeks. […] Fasting blood glucose was measured from whole blood collected from a tail vein after fasting for six hours at the second week of administration using a Roche's AccuChek Active glucose meter.

DIO mice = assay: 12-week drug-diet admixture in diet-induced obese (DIO) and insulin resistant mice; assay type: in vivo, C57BL/6J mice; conditions: compound 1 100 mg/kg/day, elafibranor 30 mg/kg/day, alone or in combination, 12 weeks
Procedure: To induce insulin resistance, six-weeks old male C57BL/6J mice were supplied with a special diet of high fat, high fructose and high cholesterol (Research Diets Inc., D09100301) for at least 27 weeks. A drug-diet admixture was prepared so that diet-induced obese (DIO) and insulin resistant mice could be administered with each of compound 1 at 100 mg/kg/day and elafibranor at 30 mg/kg/day as a PPAR agonist alone or in combination. The prepared drug-diet admixture was supplied to mice for 12 weeks. Nonfasting blood glucose level was measured from plasma collected after autopsy at a time point of 12 weeks after drug administration using a Roche's AccuChek Active glucose meter.

normal mice = assay: Single dose administration in normal mice with oral sucrose loading; assay type: in vivo, ICR male mice; conditions: oral compound 1 3 mg/kg, voglibose 0.02 mg/kg, alone or in combination; sucrose 2 g/kg 30 min later
Procedure: At a time point of 30 minutes later, sucrose solution was orally loaded at 2 g/kg/10 ml. […] A time-blood glucose level response curve was obtained. In terms of a rate of change, a comparison was made between an area under the time-blood glucose level curve in a control group administered with solvent only and an area under the time-blood glucose level curve in a drug administration group.

Structure (SMILES)	effect of reducing body fat (HF mice)	blood concentration of total GLP-1 (GLP-1 secretion) (HF mice)	weight loss (HF mice) [%]	hypoglycemic effect (nonfasting blood glucose level) (DIO mice)	hypoglycemic effect (postprandial blood glucose for two hours after sucrose loading) (normal mice)
CCc1cnc(N2CCC(CCCOc3cc(F)c(-c4noc(C(C)C)n4)c(F)c3)CC2)nc1 [compound 1, 3-(4-(3-(1-(5-ethylpyrimidin-2-yl)piperidin-4-yl)propoxy)-2,6-difluorophenyl)-5-isopropyl-1,2,4-oxadiazole]	no effect of reducing body fat	significant increase in GLP-1 secretion was not identified	−4.0	did not exhibit a significant hypoglycemic effect	–
CSc1ccc(C(=O)/C=C/c2cc(C)c(OC(C)(C)C(=O)O)c(C)c2)cc1 [elafibranor]	–	–	–	exhibited a hypoglycemic effect	–
CN(C)C(=N)N=C(N)N [metformin]	insignificant effect of reducing body fat	significant increase in GLP-1 secretion was not identified	−4.4	–	–
OCC(CO)N[C@H]1C[C@](O)(CO)[C@@H](O)[C@H](O)[C@H]1O [voglibose]	–	–	–	–	no hypoglycemic effect
